Patent US10212958B2, “Method for producing stabilized whole wheat flour” (Intercontinental Great Brands LLC, priority 2011, dated 2019)
“And” between values parts separate entries of the source, which are not always exact repeats. Equal entries are not always repeated.

What was measured:
[1] = system: Novozyme lipase from Aspergillus oryzae; assay: Titrimetric lipase activity after 40 min pre-incubation of the enzyme in acid solution; assay type: biochemical
Experimental: The objective of this example was to test the effect of acid type and concentration on the lipase activity after pre-incubation of the enzyme for 40 minutes in acid solution. The following acids and levels were tested; (1) 5 ml lactic acid (8 g/1000 ml pH 2.57), add 20 μl lipase and 980 μl water inhibition 40 min; (2) 5 ml lactic acid (2 g/1000 ml pH 2.85), add 20 μl lipase and 980 μl water inhibition 40 min; (3) 5 ml lactic acid (16 g/1000 ml pH 2.48), add 20 μl lipase and 980 μl water inhibition 40 min; (4) 5 ml acetic acid (1 g/1000 ml pH 2.80), add 20 μl lipase and 980 μl water inhibition 40 min; (5) 5 ml HCL (4 g/1000 ml, pH 1.5), add 20 μl lipase and 980 μl water inhibition 40 min; (6) 5 ml green tea extract (8 g/1000 ml), add 20 μl lipase and 980 μl water inhibition 40 min.
Lipase (3.1.1.3) activity was adapted from the method set forth in “Worthington, Von.; The Worthington Manual; 1993 from Worthington Biochemical Corporation, 730 Vassar Avenue, Lakewood, N.J. 08701”.
H. Olive oil-gum Arabic emulsion: Prepare by dissolving 16.5 grams of gum Arabic in 130 ml of reagent grade water. Once the material is in solution, dilute to a final volume of 165 ml with reagent grade water. Add 20 ml of reagent grade olive oil and 15 grams crushed ice. Blend the mixture in a Waring blender at low speed for 3 min and filter the emulsion through glass wool. Prepare fresh daily. Enzyme:
The titration can be measured with a laboratory pH meter (a Corning pH meter 360i equipped with A-58905-66 High-performance combination pH electrode).
Blank rate determination: Adjust the pH of the reaction mixture to 8.0 and record the volume of titrant required to maintain the pH at 8.0 for 3-4 minutes after a constant rate is achieved. Determine the “blank rate” as the volume of titrant added per minute from the final linear portion of the curve.
Sample determination: at zero time, add appropriately diluted enzyme and readjust the pH to 8.0 if necessary. Record the volume of titrant required to maintain the pH at 8.0 for 5-6 minutes. Determine the “sample rate” as the volume of titrant added per minute from the linear portion of the curve.

[2] = system: free fatty acids formed in whole grain flour; assay: Free fatty acid content of whole grain flour, fresh and after accelerated storage (SPE, GC-FID); set-up: species or system wheat
Experimental: The objective of this example was to test the effect of acid tempering on the stability of whole grain flour during storage. The amount of free fatty acid formed was measured after flour storage in a sealed glass jar for 30 days under accelerated storage conditions of 92° F. […] The flours tested were: […] Results were compared to the amount of free fatty acids formed in untreated control flour. Whole grain flours were made with natural proportion of bran component and endosperm obtained from the flour mill. Whole grain flour ash content was used to confirm composition. Free fatty acid content of whole grain flour (fresh flour and 30 days aged flour) was determined according to the following method: Free fatty acid content of the flours was adapted from the method set forth in “Jong, C.; Badings, H. T.; Journal of High Resolution Chromatography; 1990; Determination of Free Fatty Acids in Milk and Cheese Procedures for Extraction, Clean up, and Capillary Gas Chromatography Analysis”. Lipid extracts, containing free fatty acids, are obtained from foods by extraction with acidified organic solvents. The anhydrous lipid extracts are passed through a weak anion exchange SPE cartridge to isolate the free fatty acids from the coextracted material, particularly neutral glycerides. • a. […] HP5890 Series II] • b. Autosampler compatible with the GC, [example: HP7673] • c. Software system capable of collecting chromatographic data, calculating statistics and tabulating results • d. Analytical balance with 0.0001 g resolution, 150 g capacity • e. Centrifuge capable of 3000 rpm (2050 rcf), with temperature control, (optional) • f. Polytron able to homogenize samples at 25000 rpm [example: Brinkmann Instruments, Polytron Kinematica AG Model PT 1300 D] • g. Vortex Mixer • h. Solvent Dispensers with inert plastic components [example: […] Column: […] SPE cartridges: […] Glass centrifuge test tubes with teflon lined screw caps, size: 16×125 mm • 4. Corex glass centrifuge tubes with teflon lined screw caps, 45 mL [example: COREX II No. 8422-A] • 5. Whatman Filter paper #1, 125 mm Diameter • 6. Pyrex brand filtering funnel, short stem • 7. Disposable Culture Tubes, borosilicate glass 16×150 mm [example: VWR Cat #47729-580] • 8. Glass vials with teflon lined screw caps, 4 mL. [example: Kimble Cat #60940A 4] • 9. Autosampler vials, borosilicate glass, crimp-top with teflon lined caps • 10. Amber borosilicate bottles with teflon lined screw cap, 100 mL • 11. Clear borosilicate bottle with teflon lined screw cap, 250 mL • 12. Graduated cylinders: 250 mL, 100 mL • 13. […] Glass volumetric pipettes class A 5, 2, 1 mL and graduated 10, 5 mL • 15. Disposable Pasteur pipettes: 53⁄4 and 9 inch • 16. Microspatula, spatula, and polypropylene sample transfer tubes Reagents/Solutions Reagents and Standards • 1. Ethanol-200 proof, anhydrous, 99.5%+, stored in amber glass [Aldrich #45, 983-6 or equivalent] • 2. Hexanes-GC grade [B&J #216-4 or equivalent] • 3. iso-Propanol-GC grade [B&J #323-4 or equivalent] • 4. Methyl-tert-butylether (MTBE)-GC grade [B&J #242-4 or equivalent] • 5. Methylene chloride-GC grade [B&J #299-4 or equivalent] • 6. […] Sulfuric acid-ACS reagent, 95.0-98.0% [Fisher Reagent ACS #A800-500 or equivalent] • 8. Water Type 1 [Fisher HPLC #W5-4 or equivalent] • 9. Diatomaceous Earth [Leco part #502-327 or equivalent] • 10. […] Standards (Standard Preparation See Appendix 13.1) • a. Internal Standard: 11:0; Surrogates: 9:0 and 13:0 • b. Matrix Spike (MS) standard working solution in ethanol: MS @ 50 µg/mL. This level may be appropriate for low to mid-level determinations. Generally the FFA levels vary tremendously within a given matrix. Consequently a spike solution of varying amounts per individual FFA may be necessary per matrix. • c. Calibration Standards in hexanes establish linear range: […] Comment: 18:1 and 18:2 calculations are based on 18:0 response factor. • d. […]

[3] = Whole grain flour pH in 10% slurry; assay type: physicochemical
[4] = Solvent Retention Capacity (SRC) of flour, adapted from AACC 56-10; assay type: physicochemical; set-up: Flour SRC sucrose / Flour SRC Sodium carbonate / Flour SRC Lactic acid / Flour SRC Water: unit not given here
Experimental: Solvent Retention Capacity (SRC) serves as a practical test to monitor the function of specific flour components, such as the amount of damaged starch. The SRC assay method used was adapted and modified from AACC method 56-10, according to the following procedure:
• 50 ml centrifuge tubes+caps • 5% weight sodium carbonate solvent • Centrifuge (IEC, Centra GP8, 269 rotor, 2130 rpm) Procedure: • 1. Weigh 50 ml centrifuge tubes+caps (for special tubes weight O-ring seals) • 2. Weigh and add 5.00 g of bran-germ mixture to each tube (determine moisture content of mixture) • 3. Add 25 g of solvent (pre-weighed solvent aliquots) to each tube • 4. Allow it to hydrate for 20 min, shaking every 5 min (5, 10, 15, 20) • 5. Centrifuge for 15 min at 1000×g • 6. Decant supernatant and drain 5 min at 45° angle and 5 min at 90° angle. • 7. Put cap back and weigh pellet

[5] = AACC 10-53 Cookie Test Baking; settings: lactic acid 3000 ppm, green tea extract 7000 ppm
Excerpt: AACC 10-53 Cookie Test Baking Method was designed at Nabisco Biscuit Company for evaluation of ingredient functionality and predictive correlation between sensory and mechanical texture analysis (mechanical texture analysis by TAXT2 Texture analyzer 3 point bend or puncture test). The test is an improvement over AACC 10-52 Sugar-Snap Cookie Test Baking Method as confirmed by USDA Soft Wheat Quality Lab (Wooster Ohio). The AACC 10-53 test was adopted as the official method of the American Association of Cereal Chemists after collaborative testing by the Soft Wheat Quality Committee in 1992. The equipment, cookie dough composition, mixing procedure, baking procedure, measurement procedure, etc. used in the test are: The Standard Formulation AACC 10-53 Single Batch to Make 4 Test Cookies is: [table] [table] The general mixing procedure used is: The baketime is defined as the time required to produce a weight loss of 13.85% during baking of the formulation at 400 F. Portion four 60 g pieces of dough with minimum deformation and place on cookie sheet. Lay rolling pin across gauge bars of cookie sheet allowing weight of pin to compress the dough pieces without additional compressive force. Pick up rolling pin and place on gauge bars at end of cookie sheet, and roll only once away from you. Cut cookies with 60 mm cutter, and carefully lift scrap dough with small spatula. […]

[6] = Flour moisture (AACC Method 44-15A); assay type: physicochemical; settings: coarse bran fraction before recombining
Experimental: Whole grain flour pH was measured in a 10% slurry (one part flour to 9 part water) using a Corning pH meter 360i equipped with an A-58905-66 High-performance combination pH electrode. Ash is determined according to AOAC official method 923.03 for measuring ash in flour. Flour moisture was determined according to AACC Method 44-15A.

[7] = after 30 days at 92 F, flour at about pH=4.5
[8] = lactic acid 3000 ppm, green tea extract 7000 ppm

CC(=O)O [Acetic acid, acetic acid]
Lipase activity ([1]; 40 min acid pre-treat 0.005 g/15 ml, 0.006 M, pH 2.8): 5.33 Units/μl

CC(O)C(=O)O (stereo not shown) [Lactic acid, lactic acid]
Flour fatty acid formation ([2]; after 28 days at 92 F, about 9000 ppm lactic acid concentration and 4.5 pH): 1425 ppm
Flour fatty acid formation [2, 7]: 1382 ppm
Whole grain flour fatty acid content after storage ([2]; storage at 82 F, compared to control, Example 9): reduced compared to control
FFA (ppm) 3 week at 28 C. ([2]; whole grain flour, lactic acid 3000 ppm, green tea extract 7000 ppm (dry weight/initial kernel weight)): 2628 ppm and 2364 ppm
break flour pH ([3]; break flour fraction before recombining): 4.88
fine bran pH ([3]; fine bran fraction before recombining): 4.52
Flour pH [3, 8]: 5.54 and 5.56
Flour pH ([3]; soft red whole grain flour from treated wheat): 5.6
flour strength as measured by lactic acid SRC value ([4]; as a function of temper time and amount of lactic acid added, FIG. 7): did not decrease flour strength
Flour SRC Lactic acid [4, 8]: 69.11 and 69.40
Flour SRC Sodium carbonate [4, 8]: 76.58 and 78.67
Flour SRC Water [4, 8]: 59.53 and 60.35
Flour SRC sucrose [4, 8]: 95.77 and 94.23
Cookie dough pH [5]: 7.65 and 7.52
Lipase activity ([1]; 40 min acid pre-treat 0.02 g/15 ml, 0.015 M, pH 2.85): 6.45 Units/μl
Lipase activity ([1]; 40 min acid pre-treat 0.04 g/15 ml, 0.030 M, pH 2.57): 5.8 Units/μl
Lipase activity ([1]; 40 min acid pre-treat 0.08 g/15 ml, 0.059 M, pH 2.48): 4.15 Units/μl
coarse bran moisture [6]: 14.49

Cl [hydrochloric acid]
Flour fatty acid formation [2, 7]: 746 ppm
Lipase activity ([1]; 40 min acid pre-treat 0.02 g/15 ml, 0.036 M, pH 1.5): 0 Units/μl

O=P(O)(O)O [phosphoric acid]
Flour fatty acid formation [2, 7]: 1592 ppm
